How the values were obtained:
hIBAT = target: T1, hIBAT (Homo sapiens, UniProt Q12908); test: IBAT (h/m) assay, 3H-taurocholic acid uptake in human IBAT-overexpressing cells; type: cell-based; details: 0.25 μM 3H-taurocholic acid and 5 μM cold taurocholic acid, 20 minutes
T1 construct: expressed in transfected cells; kept under Puromycin selection
T1 sequence (Q12908 1-348): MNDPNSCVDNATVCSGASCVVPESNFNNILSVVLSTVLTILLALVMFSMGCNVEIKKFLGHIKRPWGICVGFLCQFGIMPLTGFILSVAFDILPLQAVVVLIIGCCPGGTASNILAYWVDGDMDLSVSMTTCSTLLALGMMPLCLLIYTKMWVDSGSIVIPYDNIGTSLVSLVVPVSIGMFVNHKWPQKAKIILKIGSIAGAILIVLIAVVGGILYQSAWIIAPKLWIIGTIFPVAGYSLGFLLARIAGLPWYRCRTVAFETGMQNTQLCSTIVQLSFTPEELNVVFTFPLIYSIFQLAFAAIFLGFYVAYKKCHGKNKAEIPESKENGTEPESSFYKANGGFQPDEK
Experimental: 10,000 cells (Human or Mouse IBAT-overexpressing cells) were seeded in 96-wells plate (Corning CLS3809) in 200 μL MEM-alpha medium (Gibco 12571-063) supplemented with 10% FBS (Gibco 10438026) containing Puromycin (Gibco A1113803) (10 μg/mL) and incubated at 37° C. in 5% CO2 for 48 hours. After incubation, media was decanted from the wells and cells were washed two times with 300 μL of basal MEM-alpha medium (FBS-free). After decanting basal MEM-alpha medium each time, plates were tapped against paper towel to ensure maximum removal of residual media. Test inhibitor dilutions (highest test concentration being 10 μM, 3-fold serial dilution, 10 points) prepared in DMSO (Sigma D2650) were added in incubation mix (maintaining 0.2% final DMSO concentration) containing 0.25 μM 3H-taurocholic acid (ARC ART-1368) and 5 μM of cold taurocholic acid (Sigma T4009). 50 μL of incubation mix containing test inhibitors was then added to the wells (in duplicate) and the plates were incubated for 20 minutes in a CO2 incubator at 37° C. After incubation, the reaction was stopped by keeping the plates on ice water mix for 2-3 minutes and then the incubation mix was aspirated completely from the wells. The wells were washed two times with 250 μL of chilled unlabelled 1 mM taurocholic acid dissolved in HEPES (Gibco 15630080)-buffered (10 mM) HBSS (Gibco 14175079) (pH 7.4). The plates were tapped against a paper towel after every wash to ensure maximum removal of blocking buffer.
(§1) 100 μL of MicroScint-20 (PerkinElmer 6013621) was added to the wells and kept overnight at room temperature before reading the plates in TopCount NXT™ Microplate Scintillation and Luminescence Counter from PerkinElmer under 3H Test protocol (set at 120 seconds reading time per well).
(§2) All test compounds were provided in powder form at room temperature. 10 mM DMSO stocks of the test compounds were prepared, aliquoted and stored at −20° C. From the 10 mM DMSO stock of the compounds, a 3-fold serial dilution in DMSO was prepared to get a total of 10 dilutions of the test compounds. 0.5 μL of this dilution in DMSO was added to 250 μL of FBS-free basal media containing 3H-taurocholic acid and cold taurocholic acid to prepare the incubation mixture.

hLBAT = target: T2, hLBAT (Homo sapiens, UniProt Q14973); test: LBAT (h/m) assay, 3H-taurocholic acid uptake in human LBAT-overexpressing cells; type: cell-based; details: 0.3 μM 3H-taurocholic acid and 7.5 μM cold taurocholic acid, 20 minutes
T2 construct: expressed in transfected cells; kept under Geneticin selection
T2 sequence (Q14973 1-349): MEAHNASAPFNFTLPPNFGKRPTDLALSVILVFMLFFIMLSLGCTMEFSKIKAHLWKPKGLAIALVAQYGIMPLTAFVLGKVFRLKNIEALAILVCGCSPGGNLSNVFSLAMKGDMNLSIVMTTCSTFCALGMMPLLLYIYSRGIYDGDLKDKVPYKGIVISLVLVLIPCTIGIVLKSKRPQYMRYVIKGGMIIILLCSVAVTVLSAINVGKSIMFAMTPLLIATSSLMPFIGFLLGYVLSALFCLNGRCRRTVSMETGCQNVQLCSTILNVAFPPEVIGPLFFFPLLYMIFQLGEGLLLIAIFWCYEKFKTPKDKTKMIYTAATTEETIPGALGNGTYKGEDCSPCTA
Experimental: 20,000 cells (Human or Mouse LBAT-overexpressing cells) were seeded in 96-wells plate (Corning CLS3809) in 100 μL MEM-alpha medium (Gibco 12571-063) supplemented with 10% FBS (Gibco 10438026) containing Geneticin (Gibco 10131-027) (1 mg/mL) and incubated at 37° C. in 5% CO2 for 24 hours. After incubation, media was decanted from the wells and cells were washed two times with 300 μL of basal MEM-alpha medium (FBS-free). After decanting basal MEM-alpha medium each time, plates were tapped against paper towel to ensure maximum removal of residual media. For human LBAT, incubation mix was prepared by adding test inhibitor dilutions (3-fold serial dilution in DMSO (Sigma D2650), 10 points) in MEM-alpha (without FBS) containing 0.3 μM 3H-taurocholic acid (ARC ART-1368) and 7.5 μM cold taurocholic acid (Sigma T4009) (maintaining 0.2% final DMSO concentration). For mouse LBAT, incubation mix was prepared by adding test inhibitor dilutions (3-fold serial dilution in DMSO, 10 points) in MEM-alpha (without FBS) containing 0.3 μM 3H-taurocholic acid and 25 μM cold taurocholic acid maintaining 0.2% final DMSO concentration). 50 μL of incubation mix containing test inhibitors was then added to the wells (in duplicate) and the plates were incubated for 20 minutes in a CO2 incubator at 37° C. After incubation, the reaction was stopped by keeping the plates on ice water mix for 2-3 minutes and then the incubation mix was aspirated completely from the wells. The wells were washed two times with 250 μL of chilled unlabelled 1 mM taurocholic acid dissolved in HEPES (Gibco 15630080)-buffered (10 mM) HBSS (Gibco 14175079) (pH 7.4). The plates were tapped against a paper towel after every wash to ensure maximum removal of blocking buffer.
as §1, with “well, with normal plate orientation).” for “well).”
as §2

[1] = Bidirectional permeability assay (Caco-2 cells); details: human, Caco-2
Experimental: Caco-2 cells (Evotec) were seeded at a density of 70,000 cells/well in Millicell® 24-well cell culture insert plates and maintained in an incubator (37° C., 5% CO2, 95% RH) for 21 days with media change on alternate days.
Stock solutions (10 mM) of the test compounds, atenolol (low permeability marker), propranolol (high permeability marker) and digoxin (substrate for P-gp transport pathway) were prepared in dimethylsulfoxide (DMSO). An intermediate stock solution (1 mM) was prepared by diluting 10 μL of 10 mM master stock solution with 90 μL of neat DMSO. A working stock solution (10 μM) was prepared by diluting 50 μL of 1 mM with 4950 μL of FaSSIF buffer. Post addition of compounds to the FaSSIF, samples were subjected to sonication for 2 hours, and centrifuged at 4000 RPM for 30 minutes at 37° C. The 4 mL of resultant supernatant was directly used in the assay. The final DMSO concentration in the transport experiments was 1%.
On the day of assay, Caco-2 monolayers were washed twice with transport buffer (HBSS, pH 7.4) and pre-incubated for 30 min (37° C., 5% CO2, 95% RH) in an incubator. The electrical resistance of the monolayers was measured with a Millicell®—ERS system. Monolayers with trans-epithelial electrical resistance (TEER) values greater than 350 ohm·cm^2 were selected for the assay.
The assay was conducted in absorptive direction (A2B) and secretory (B2A) directions. Transport experiments were initiated by addition of transport assay buffer (FaSSIF buffer prepared in HBSS) consisting of compounds to the donor compartment (apical chamber A-B; basolateral chamber B-A) in duplicate (n=2) wells. Drug free HBSS buffer (pH 7.4) containing 1% bovine serum albumin (BSA) was introduced to the receiver (A-B-basolateral; B-A-Apical) compartments. The volumes of apical and basolateral compartments were 0.4 and 0.8 mL, respectively. After adding dosing solution, plates were incubated in an incubator for 120 minutes at 37° C. After 120 minutes, donor and receiver samples were collected and matrix matched (1:1, 30 μL study sample+30 μL blank buffer) with the opposite buffer. Dosing samples matrix matched (1:1, 30 μL study sample+30 μL blank buffer) with the opposite buffer. Samples were processed by adding acetonitrile containing internal standard (60 μL study sample+200 μL acetonitrile containing internal standard—Tolbutamide, 500 ng/mL). Samples were vortexed and centrifuged at 4000 rpm for 10 minutes. The obtained supernatant (100 μL) was diluted with 100 μL of water and transferred to fresh 96 well plates. The concentration of compounds in the samples was analyzed by liquid chromatography tandem mass spectrometry (LC-MS/MS) method using discovery grade bio-analytical method, as applicable.
The mean apparent permeability (Papp, ×10^−6 cm/sec) of the test compounds, atenolol, propranolol and digoxin were calculated as follows:

| Molecule | IC50 (hIBAT) [nM] | IC50 (hLBAT) [nM] | Papp A→B at 120 min, 10 µM [1] [×10⁻⁶ cm/s] | Papp B→A at 120 min, 10 µM [1] [×10⁻⁶ cm/s] |
| --- | --- | --- | --- | --- |
| CCCC[C@@]1(CC)CN(c2ccccc2)c2cc(N(C)C)c(O/C=C/C(=O)O)cc2S(=O)(=O)N1.CCCC[C@]1(CC)CN(c2ccccc2)c2cc(N(C)C)c(O/C=C/C(=O)O)cc2S(=O)(=O)N1 (mixture of isomers) [Example 15, (S)-(E)-3-((3-butyl-7-(dimethylamino)-3-ethyl-1,1-dioxido-5-phenyl-2,3,4,5-tetrahydro-1,2,5-benzothiadiazepin-8-yl)oxy)acrylic acid and (R)-(E)-3-((3-butyl-7-(dimethylamino)-3-ethyl-1,1-dioxido-5-phenyl-2,3,4,5-tetrahydro-1,2,5-benzothiadiazepin-8-yl)oxy)acrylic acid] | 66 |  |  |  |
| CCC[C@@]1(CC)CN(c2ccccc2)c2cc(SC)c(O/C=C(\F)C(=O)O)cc2S(=O)(=O)C1.CCC[C@]1(CC)CN(c2ccccc2)c2cc(SC)c(O/C=C(\F)C(=O)O)cc2S(=O)(=O)C1 (mixture of isomers) [Example 18, (S)—(Z)-3-((3-ethyl-7-(methylthio)-1,1-dioxido-5-phenyl-3-propyl-2,3,4,5-tetrahydro-1,5-benzothiazepin-8-yl)oxy)-2-fluoroacrylic acid and (R)—(Z)-3-((3-ethyl-7-(methylthio)-1,1-dioxido-5-phenyl-3-propyl-2,3,4,5-tetrahydro-1,5-benzothiazepin-8-yl)oxy)-2-fluoroacrylic acid] | 337 | 38 |  |  |
| CCC[C@@]1(CC)CN(c2ccccc2)c2cc(SC)c(O/C=C(\F)C(=O)O)cc2S(=O)(=O)C1.CCC[C@]1(CC)CN(c2ccccc2)c2cc(SC)c(O/C=C(\F)C(=O)O)cc2S(=O)(=O)C1 (mixture of isomers) [Example 19, (S)—(Z)-3-((3-ethyl-7-(methylthio)-1,1-dioxido-5-phenyl-3-propyl-2,3,4,5-tetrahydro-1,5-benzothiazepin-8-yl)oxy)-2-fluoroacrylic acid and (R)—(Z)-3-((3-ethyl-7-(methylthio)-1,1-dioxido-5-phenyl-3-propyl-2,3,4,5-tetrahydro-1,5-benzothiazepin-8-yl)oxy)-2-fluoroacrylic acid] | 283 | 5 |  |  |
| CCCCC1(CCCC)CN(c2ccc(F)cc2)c2cc(SC)c(O/C=C(\F)C(=O)O)cc2S(=O)(=O)C1 [Example 1, (Z)-3-((3,3-dibutyl-5-(4-fluorophenyl)-7-(methylthio)-1,1-dioxido-2,3,4,5-tetrahydro-1,5-benzothiazepin-8-yl)oxy)-2-fluoroacrylic acid] | 21 | 49 | 0.9 | 0.9 |
| CCCCC1(CC)CN(c2ccccc2)c2cc(N(C)C)c(O/C=C(\F)C(=O)O)cc2S(=O)(=O)N1 (stereo not drawn) [Example 2, (Z)-3-((3-butyl-7-(dimethylamino)-3-ethyl-1,1-dioxido-5-phenyl-2,3,4,5-tetrahydro-1,2,5-benzothiadiazepin-8-yl)oxy)-2-fluoroacrylic acid] | 13 | 124 | 1.4 | 2.4 |
| CCCCC1(CC)CN(c2ccc(F)cc2)c2cc(SC)c(O/C=C/C(=O)O)cc2S(=O)(=O)C1 (stereo not drawn) [Example 8, (E)-3-((3-butyl-3-ethyl-5-(4-fluorophenyl)-7-(methylthio)-1,1-dioxido-2,3,4,5-tetrahydro-1,5-benzothiazepin-8-yl)oxy)acrylic acid] | 7 | 118 |  |  |
| CCCC1(CC)CN(c2ccccc2)c2cc(SC)c(O/C=C/C(=O)O)cc2S(=O)(=O)C1 (stereo not drawn) [Example 11, (E)-3-((3-ethyl-7-(methylthio)-1,1-dioxido-5-phenyl-3-propyl-2,3,4,5-tetrahydro-1,5-benzothiazepin-8-yl)oxy)acrylic acid] | 260 | 97 |  |  |
| CCC1(C(C)C)CN(c2ccccc2)c2cc(SC)c(O/C=C/C(=O)O)cc2S(=O)(=O)C1 (stereo not drawn) [Example 16, (E)-3-((3-ethyl-3-isopropyl-7-(methylthio)-1,1-dioxido-5-phenyl-2,3,4,5-tetrahydro-1,5-benzothiazepin-8-yl)oxy)acrylic acid] | 565 | 218 |  |  |
| CCC1(C(C)C)CN(c2ccccc2)c2cc(SC)c(O/C=C(\F)C(=O)O)cc2S(=O)(=O)C1 (stereo not drawn) [Example 17, (Z)-3-((3-ethyl-3-isopropyl-7-(methylthio)-1,1-dioxido-5-phenyl-2,3,4,5-tetrahydro-1,5-benzothiazepin-8-yl)oxy)-2-fluoroacrylic acid] | 378 | 17 |  |  |
| (S)-(E)-3-((3-butyl-3-ethyl-5-(4-fluorophenyl)-7-(methylthio)-1,1-dioxido-2,3,4,5-tetrahydro-1,5-benzothiazepin-8-yl)oxy)acrylic acid and (R)-(E)-3-((3-butyl-3-ethyl-5-(4-fluorophenyl)-7-(methylthio)-1,1-dioxido-2,3,4,5 tetrahydro-1,5-benzothiazepin-8-yl)oxy)acrylic acid [Example 9] | 151 | 150 |  |  |
| (S)—(Z)-3-((3-butyl-3-ethyl-5-(4-fluorophenyl)-7-(methylthio)-1,1-dioxido-2,3,4,5-tetrahydro-1,5-benzothiazepin-8-yl)oxy)-2-fluoroacrylic acid and (R)—(Z)-3-((3-butyl-3-ethyl-5-(4-fluorophenyl)-7-(methylthio)-1,1-dioxido-2,3,4,5-tetrahydro-1,5-benzothiazepin-8-yl)oxy)-2-fluoroacrylic acid [Example 6] | 66 | 12 |  |  |
| (S)—(Z)-3-((3-butyl-7-(dimethylamino)-3-ethyl-1,1-dioxido-5-phenyl-2,3,4,5-tetrahydro-1,2,5-benzothiadiazepin-8-yl)oxy)-2-fluoroacrylic acid and (R)—(Z)-3-((3-butyl-7-(dimethylamino)-3-ethyl-1,1-dioxido-5-phenyl-2,3,4,5-tetrahydro-1,2,5-benzothiadiazepin-8-yl)oxy)-2-fluoroacrylic acid [Example 4] | 91 | 77 |  |  |

— US11267794B2, “Benzothia(di)azepine compounds and their use as bile acid modulators” (Albireo AB, priority 2019, dated 2022)
